This note sets out measurements from patent publication US11986512B2, “Compositions and methods for cancer therapy” (Thetis Pharmaceuticals LLC, priority 2021, dated 2024).

One assay has as its system KPC cells. Description: Orthotopic KPC model of pancreatic cancer, survival. Type of assay: in vivo, C57BL/6J male mice. As for the experimental part: To expand our understanding of less than daily (LTD) dosing of bis RvE1 Mg-di-lysinate as a cancer therapy that could be used in combination with chemotherapy, bis RvE1 Mg-di-lysinate (Compound 1) was investigated in the orthotopic KPC model of pancreatic cancer. A total of fifteen (15) C57BL/6J male mice were implanted orthotopically with 5×10e5 living KPC cells into the pancreas. The mice were randomized (n=7-8) to treatment with bis RvE1 Mg-di-lysinate (300 ug/kg, SC, Q6D) with or without gemcitabine (50 mg/kg, IP, Q3D, up to 6 doses) one day after tumor cell implantation.

For another assay, the system named is subcutaneous KPC tumors. Description: RNAseq cell enrichment analysis of subcutaneous KPC tumors. Type of assay: in vivo, mice. As to conditions: Q6D treatment, sacrificed on Day 26, compared to placebo. As for the experimental part:
RNAseq analysis was performed on tumor samples from mice with subcutaneous KPC tumors sacrificed on Day 26 following treatment (Q6D) with bis RvE1 Mg-di-lysinate (Compound 1) compared to placebo. […] Darker color indicates increased gene expression, for various immune cells and other cells, as listed across the top of the heatmap. […] Namely, these unexpected results may be due to durable effects on the tumor microenvironment including changes in immune cell phenotype and the T-cell compartment such as T-cell priming and increased tumor-infiltrating lymphocytes.

Regarding `CC[C@@H](O)/C=C/C=C\C[C@@H](O)/C=C/C=C/C=C\[C@@H](O)CCCC(=O)O` [bis RvE1 Mg-di-lysinate], the mean survival in the assay with KPC cells (bis RvE1 Mg-di-lysinate 300 ug/kg SC Q6D in combination with gemcitabine 50 mg/kg IP Q3D up to 6 doses) was 129 days. Besides, the “mice alive as of the last observation (day 250)” value in the assay with KPC cells (bis RvE1 Mg-di-lysinate + gemcitabine combination group, three of the seven mice) was 43%. Further, the “increase in survival, combination versus gemcitabine monotherapy” value with KPC cells (bis RvE1 Mg-di-lysinate + gemcitabine, p<0.05) is given as “four-fold increase in survival”. The “immune cell marker gene expression in tumors (RNAseq heatmap)” value with subcutaneous KPC tumors is “increase in markers of monocytes and DC cell subset (cDCs, pDCs, and iDCs) and markers of NK, CD8+ T cells, Th1 cells, and memory T cells (CD8+ and CD4+)”.
